The structures appear in SMILES notation.

In this assay the target is endogenous wild-type p53 protein (Homo sapiens, UniProt P04637). As to the kind of experiment: Western blot of endogenous wild-type p53 protein degradation (knockdown) in HCT116 cells. In kind it is cell-based. Also on record: degradation (knockdown) of an endogenous wild-type p53 protein and MDM2 protein in HCT116 cells; endogenous in cells; host or cells: HCT116. The note with it: 48 hours after addition, vs DMSO control. As to the method: In Example 2, degradation (knockdown) of an endogenous wild-type p53 protein and MDM2 protein in HCT116 cells (human large intestinal cancer cells) to which TIBC-CANDDY_MLN had been added was evaluated by Western blot analysis.
HCT116 cells were seeded in a 24-well plate at a cell density of 8×10^4 cells/well, and then cultured under conditions of 37° C. and 5 vol % CO2 for 16 hours.
After 16 hours from cell seeding, TIBC-CANDDY_MLN or TIBC was added to HCT116 cells as follows. As a medium, a serum-free medium (37° C.) in which 1 mass % L-glutamine solution (Sigma-Aldrich) was added to D-MEM (high D-glucose, phenol red, sodium pyruvate (Wako Pure Chemical Industries, Ltd.)) was used. It is noted that the L-glutamine solution was added immediately before use. […]
After electrophoresis, proteins were transferred to a PVDF membrane (Immobion™-P, Millipore) under conditions of 100 V and 2 hours using a tank-type blotting device and a transfer buffer (25 mM Tris-HCl, 195 mM glycine, 0.01% SDS, 15% methanol). […] Subsequently, the membrane was treated with a chemiluminescence reagent Immobilon™ Western (Millipore), and then chemiluminescence was detected using a lumino image analyzer LAS-3000 (FUJIFILM Corporation).

Sequence of endogenous wild-type p53 protein (P04637 whole entry): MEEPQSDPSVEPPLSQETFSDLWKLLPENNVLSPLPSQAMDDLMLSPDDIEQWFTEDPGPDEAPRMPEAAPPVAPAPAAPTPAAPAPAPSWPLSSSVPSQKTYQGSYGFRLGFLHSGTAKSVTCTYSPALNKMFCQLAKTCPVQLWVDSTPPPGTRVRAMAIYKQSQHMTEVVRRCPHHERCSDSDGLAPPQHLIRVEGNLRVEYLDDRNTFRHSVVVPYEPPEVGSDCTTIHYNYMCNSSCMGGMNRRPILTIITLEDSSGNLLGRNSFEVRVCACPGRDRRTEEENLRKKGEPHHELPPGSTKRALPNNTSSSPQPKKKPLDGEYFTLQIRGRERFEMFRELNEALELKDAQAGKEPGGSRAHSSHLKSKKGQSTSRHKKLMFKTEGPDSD

Consider `CC(C)C[C@H](NC(=O)CNC(=O)c1cc(Cl)ccc1Cl)C(=O)NCCCCCCC(=O)Nc1ccc(C(=O)/C=C/c2ccc(I)cc2)cc1` [TIBC-CANDDY_MLN], for which the “amount of the endogenous wild-type p53 protein (Western blot)” value is given as “reduced”.

Source of the values: patent US11007269B2, “P53 degradation inducing molecule and pharmaceutical composition” (Tokyo University of Science Foundation, priority 2016, dated 2021).
